Patent publication US20250136597A1, “COMPOUNDS AND COMPOSITIONS FOR TREATING CONDITIONS ASSOCIATED WITH STING ACTIVITY” (IFM Due, Inc., priority 2020, published 2025)

Biological target: T1, hSTING (Homo sapiens, UniProt Q86WV6, G230A/H232R/R293Q/R71H)
T1 construct: host or cells: THP1-Dual KO-IFNAR2 cells
Assay: STING reporter assay in THP1-Dual KO-IFNAR2 cells (2′3′cGAMP stimulation, luciferase reporter)
Format: cell-based
Settings: final 2′3′cGAMP 15 μM, 24 h, luciferase reporter activity
Procedure: STING pathway activation by the compounds described herein was measured using THP1-Dual™ cells (KO-IFNAR2).
THP1-Dual™ KO-IFNAR2 Cells (obtained from invivogen) were maintained in RPMI, 10% FCS, 5 ml P/S, 2 mM L-glut, 10 mM Hepes, and 1 mM sodium pyruvate. Compounds were spotted in empty 384 well tissue culture plates (Greiner 781182) by Echo for a final concentration of 0.0017-100 μM. Cells were plated into the TC plates at 40 μL per well, 2×10E6 cells/mL. For activation with STING ligand, 2′3′cGAMP (MW 718.38, obtained from Invivogen), was prepared in Optimem media.
The following solutions were prepared for each 1×384 plate: • Solution A: 2 mL Optimem with one of the following stimuli: • 60 μL of 10 mM 2′3′cGAMP→150 μM stock • Solution B: 2 mL Optimem with 60 μL Lipofectamine 2000→Incubate 5 min at RT
2 mL of solution A and 2 ml Solution B was mixed and incubated for 20 min at room temperature (RT). 20 μL of transfection solution (A+B) was added on top of the plated cells, with a final 2′3′cGAMP concentration of 15 μM. The plates were then centrifuged immediately at 340 g for 1 minute, after which they were incubated at 37° C., 5% CO2, >98% humidity for 24 h. Luciferase reporter activity was then measured. EC50 values were calculated by using standard methods known in the art.
Luciferase reporter assay: 10 μL of supernatant from the assay was transferred to white 384-plate with flat bottom and squared wells. One pouch of QUANTI-Luc™ Plus was dissolved in 25 mL of water. 100 μL of QLC Stabilizer per 25 mL of QUANTI-Luc™ Plus solution was added. 50 μL of QUANTI-Luc™ Plus/QLC solution per well was then added. Luminescence was measured on a Platereader (e.g., Spectramax I3X (Molecular Devices GF3637001)).
Luciferase reporter activity was then measured. EC50 values were calculated by using standard methods known in the art.

T1 sequence (Q86WV6 whole entry R71H/G230A/H232R/R293Q): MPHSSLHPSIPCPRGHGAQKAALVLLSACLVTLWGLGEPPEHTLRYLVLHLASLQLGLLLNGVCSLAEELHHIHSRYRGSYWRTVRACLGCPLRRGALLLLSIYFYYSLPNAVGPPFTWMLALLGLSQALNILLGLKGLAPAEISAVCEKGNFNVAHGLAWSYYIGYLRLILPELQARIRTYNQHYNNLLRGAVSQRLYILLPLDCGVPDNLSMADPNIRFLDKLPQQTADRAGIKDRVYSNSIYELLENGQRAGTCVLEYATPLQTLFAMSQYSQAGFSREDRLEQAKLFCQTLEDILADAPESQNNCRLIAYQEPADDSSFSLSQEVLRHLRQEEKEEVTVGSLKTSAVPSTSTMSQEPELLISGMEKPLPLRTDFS

EC50 [nM]	SMILES
200 to 1000	CCc1ccc(-n2cc(-c3ccc4[nH]cc(NS(=O)(=O)CC5CCCO5)c4c3)cn2)cc1 (stereo not shown) [Compound 101, N-(5-(1-(4-ethylphenyl)-1H-pyrazol-4-yl)-1H-indol-3-yl)-1-(tetrahydrofuran-2-yl)methanesulfonamide]
200 to 1000	CCc1ccc(-n2cc(-c3ccc4[nH]cc(NS(=O)(=O)CC5CC5)c4c3)cn2)cc1 [Compound 102, 1-cyclopropyl-N-(5-(1-(4-ethylphenyl)-1H-pyrazol-4-yl)-1H-indol-3-yl)methanesulfonamide]
200 to 1000	CCc1ccc(-n2cc(-c3ccc4[nH]cc(NS(=O)(=O)C5CCC5)c4c3)cn2)cc1 [Compound 103, N-(5-(1-(4-ethylphenyl)-1H-pyrazol-4-yl)-1H-indol-3 yl)cyclobutanesulfonamide]
1000 to 5000	CCc1ccc(-n2cc(-c3ccc4[nH]cc(NS(=O)(=O)CC)c4c3)cn2)cc1 [Compound 104, N-(5-(1-(4-ethylphenyl)-1H-pyrazol-4-yl)-1H-indol-3-yl)ethanesulfonamide]
